Laboratory results: publication PMC3720542, “Population pharmacokinetics of mefloquine, piperaquine and artemether-lumefantrine in Cambodian and Tanzanian malaria patients” (Malaria Journal, 2013)
Converted amounts (≈) assume the structure as drawn. “And” between values parts separate entries of the source, which are not always exact repeats. Identical values can stand only once. Like-named read-outs stand apart in the source and are kept apart here.

What was measured:
[1] = Population pharmacokinetic analysis (NONMEM) of artemether-lumefantrine and metabolites in Tanzanian malaria patients (Kibaoni); format: in vivo, human
Description: Three studies have been conducted, one in Tanzania and two in Cambodia. The study profiles are described in Figure 1. The first study was performed during March to May 2008 at the Kibaoni Health Centre, Kilombero district, Morogoro region, Tanzania. […] Six AM-LF (Coartem®, Novartis Pharma, Switzerland) doses were administered at time 0, 8, […] according to body weight (see Table 1); patients were either admitted for three days or asked to come back to the health facility for each drug administration. Mothers of breastfed patients were encouraged to feed their children and patients admitted were provided with food. Patients who reported that they have not eaten within two hours to prior dose intake were instructed to eat as soon as possible. Patients were seen by the clinical officer on days 0, 1, 2, 3, 7, 14, 28, and 42. A blood sample for pharmacokinetic measurement was taken at baseline (pre-dose on day 0) and on days 1, 2, and 7 at pre-defined random times after the last dosing. At each visit, a filter paper sample and a thin and thick smear were taken, in addition to axillary temperature, respiratory rate and haemoglobin measurements (only on days 0, 28 and 42) as well as evaluation of symptoms (e.g. headache, vomiting, and diarrhea). The exact dose and time of last drug intake, body weight, height, age, sex, food intake and concomitant medications were carefully recorded. If patients suffered from concomitant illnesses they were provided with additional treatment (paracetamol, mebendazole, metronidazole, cloxacillin, amoxicillin). Samples of 2 ml of venous blood were collected on an EDTA Vacutainer and kept on ice for no longer than 6 h after withdrawal and then aliquoted into whole blood, plasma and pellet and immediately stored in liquid nitrogen or a -80°C freezer. […] The laboratory is part of the quality control system of the World-Wide Antimalarial Resistance Network (WWARN). The pharmacokinetic analysis for each drug taken separately was performed using the NONMEM computer program Version 6 (NM-TRAN version II). It uses mixed (fixed and random) effects regression to estimate population means and variances of the pharmacokinetic parameters and to identify factors that influence them. One-, two- and three-compartment pharmacokinetic models with first-order absorption, with and without absorption lag times, were compared. Additional one or two-compartments were used for anti-malarials presenting metabolite concentrations (AM and LF). The final parameters estimated were systemic clearance (CL/F), inter-compartmental clearance (Q/F), central volume of distribution (VC/F), peripheral volume of distribution (VP/F) and absorption rate constant (ka). Since no intravenous drug concentration data were available, these parameters represent apparent values. Where available, metabolite data were included into the model and metabolism rate constant from drug compartment to metabolite compartment (k23) and metabolite clearance (CLmet) were also estimated. Owing to identifiability problems, the volume of distribution of the metabolites (VM) DLF and DHA were assumed to equal LF and AM VC, respectively. […] The observed baseline residual plasma concentrations were fitted by estimating a factor (F0) that provided an estimation of the residual doses from previous treatment. […] Proportional and combined proportional-and-additive error models were compared to describe intra-patient (residual) variability for the mother compound, and if available for its metabolite using Cpij(1 + ε1ij) + ε2ij or Cmij(1 + ε3ij) + ε4ij, where Cpij are the corresponding predicted i^th drug plasma concentration and Cmij are the predicted metabolite concentration for the j^th individual, and ε1ij, ε2ij, ε3ij, ε4ij, are independent normally distributed residual error terms with a mean of zero and a variance of σ^2_1, σ^2_2, σ^2_3, σ^2_4. The covariate analysis was performed using a stepwise insertion/deletion approach. […]

[2] = cited from earlier work
[3] = system: malaria; design: method as in earlier work; conditions: listed as LF, cited from earlier work
[4] = clinical; conditions: human, in vivo
Description: The second study was conducted during October 2007 to February 2008 at the Phnom Dék Health Centre, Rovieng district, Preah Vihear province, Cambodia. Entry criteria and study procedures were identical as in the Tanzanian study with minor adaptations described below. […] Pregnant or lactating women were excluded. Three doses of AS (Arsumax®, Sanofi-Aventis, France) and MQ (Eloquine®, Medochemie Ltd, Cyprus) were given according to body weight on three consecutive days (see Table 1). Patients were seen by the clinical officer on days 1, 2, 3, 7, 14, 21, 28, 35 and 42. Sampling for the pharmacokinetic study was done at pre-dose and approximately 1 h after first dose intake on day 0, and on days 1, 2, 7 and 14 at pre-defined random times after drug intake.
Samples of 2 ml of venous blood were collected on an EDTA Vacutainer and kept on ice for no longer than 6 h after withdrawal and then aliquoted into whole blood, plasma and pellet and immediately stored in liquid nitrogen or a –80°C freezer. […] The method was validated according to FDA recommendations, including assessment of extraction yield, matrix effect variability, overall process efficiency, standard addition experiments as well as anti-malarials short- and long-term stability in plasma. […] The laboratory is part of the quality control system of the World-Wide Antimalarial Resistance Network (WWARN).
The pharmacokinetic analysis for each drug taken separately was performed using the NONMEM computer program Version 6 (NM-TRAN version II). It uses mixed (fixed and random) effects regression to estimate population means and variances of the pharmacokinetic parameters and to identify factors that influence them.
One-, two- and three-compartment pharmacokinetic models with first-order absorption, with and without absorption lag times, were compared. Additional one or two-compartments were used for anti-malarials presenting metabolite concentrations (AM and LF). The final parameters estimated were systemic clearance (CL/F), inter-compartmental clearance (Q/F), central volume of distribution (VC/F), peripheral volume of distribution (VP/F) and absorption rate constant (ka). Since no intravenous drug concentration data were available, these parameters represent apparent values. Where available, metabolite data were included into the model and metabolism rate constant from drug compartment to metabolite compartment (k23) and metabolite clearance (CLmet) were also estimated. Owing to identifiability problems, the volume of distribution of the metabolites (VM) DLF and DHA were assumed to equal LF and AM VC, respectively. […] The observed baseline residual plasma concentrations were fitted by estimating a factor (F0) that provided an estimation of the residual doses from previous treatment.
Exponential errors following a log-normal distribution were assumed for the description of inter-patient variability of the pharmacokinetic parameters and were of the form: θi=θ×e^ηj where θi is the individual pharmacokinetic parameter value in the j^th individual, θ is the population parameter estimate, and ηj is the random effect value, which is independently and normally distributed with a mean of 0 and variance ω^2. Proportional and combined proportional-and-additive error models were compared to describe intra-patient (residual) variability for the mother compound, and if available for its metabolite using Cpij(1 + ϵ1ij) + ϵ2ij or Cmij(1 + ϵ3ij) + ϵ4ij, where Cpij are the corresponding predicted i^th drug plasma concentration and Cmij are the predicted metabolite concentration for the j^th individual, and ϵ1ij, ϵ2ij, ϵ3ij, ϵ4ij, are independent normally distributed residual error terms with a mean of zero and a variance of σ^2_1, σ^2_2, σ^2_3, σ^2_4.
The covariate analysis was performed using a stepwise insertion/deletion approach. […]

[5] = system: malaria; design: method as in PMID 10579474; conditions: cited from earlier work
[6] = bootstrap evaluation, 200 replicates
[7] = patients, age 7.7 ± 1.4 years, n 13, sampling 28 days
[8] = patients, median age 4.0 (1–10) years, n 50, sampling 72 h
[9] = patients, median age 20 (5–66) years, n 309
[10] = patients, median age 22 (14–60) years, n 217
[11] = patients, median age 23 (13–59) years, n 102
[12] = pregnant women, median age 24 (15–42) years, n 103, sampling 336 h
[13] = patients, median age 9.3 (4–15) years, n 74, sampling 28 days
[14] = patients, median age 14.8 (8–61) years, n 128, sampling 28 days
[15] = patients, median age 19 (2–55) years, n 50, sampling 63 days
[16] = prophylaxis, mean age 26 (18–55) years, n 1,111, sampling 26 weeks

With CCCCN(CCCC)CC(O)c1cc(Cl)cc2c1-c1ccc(Cl)cc1/C2=C/c1ccc(Cl)cc1 (centres unmarked) [Lumefantrine, lumefantrine] the “patients with a concentration below the cut-off value of 175 ng/ml” value ([1]; Tanzanian sample of this study, day 7) was 35%, the “F0, bootstrap mean of 200” value [1, 6] was 2.45 mg and the “k23, bootstrap mean of 200” value [1, 6] was 0.00037 h⁻¹. The “ka, bootstrap mean of 200” value [1, 6] was 0.48 h⁻¹, the “θBWCL, bootstrap mean of 200” value [1, 6] was 0.51 and the “θBWVC, bootstrap mean of 200” value [1, 6] was 0.34. The “σC (CV%), bootstrap mean of 200” value [1, 6] was 61%, the “IIV (inter-individual variability) of CL” value ([1]; final model) was 38% and the “IIV (inter-individual variability) of F0” value ([1]; final model) was 103%. The “IIV (inter-individual variability) of VC” value ([1]; final model) was 33%, the “IIV (inter-individual variability) of k23” value ([1]; final model) was 38% and the “ka (first-order absorption rate constant), population estimate” value ([1]; final model) was 0.54 h⁻¹. For the same molecule, the “θBWVC, exponent of allometric power function of body weight on VC, population estimate” value ([1]; final model) was 0.35, the “F0 (residual amount from the previous treatment), population estimate” value ([1]; final model, baseline) was 2.53 mg and the “σC (CV%), residual error for the central compartment, population estimate” value ([1]; final model, intra-patient variability) was 60%. The “k23 (metabolism rate constant), population estimate” value ([1]; final model, parent to metabolite (AM to DHA, LF to DLF)) was 0.00037 h⁻¹, the “residual dose (F0) as percentage of the recommended first dose” value ([1]; first dose 120–480 mg) was 0.3–1.3% and the clearance ([1]; human, plasma, oral, present study, Tanzanian patients, sampling 7 days) was 128 mL/min. The Vd ([1]; human, plasma, oral, present study, Tanzanian patients, sampling 7 days, read-out: VSS (steady-state volume of distribution), population estimate for a person of 70 kg) was 265 L, the “CL, population estimate for a person of 70 kg” value (from here on “CL, population estimate”) [2, 7] was 7.29 L/h and the “VSS, population estimate for a person of 70 kg” value (shortened to “VSS, population estimate”) [2, 7] was 506 L. For the same molecule, the “CL, population estimate” value [2, 8] was 5.4 L/h, the “VSS, population estimate” value [2, 8] was 623 L and the “CL, population estimate” value [2, 9] was 7.6 L/h. The “VSS, population estimate” value [2, 9] was 361 L, the “CL, population estimate” value [2, 10] was 21 L/h and the “VSS, population estimate” value [2, 10] was 301 L. For the same molecule, the “CL, population estimate” value [2, 11] was 7 L/h, the “VSS, population estimate” value [2, 11] was 298 L and the “CL, population estimate” value [2, 12] was 8.7 L/h. For the same molecule, the “VSS, population estimate” value [2, 12] was 257 L, the “efficacy rates at 42 days for a day 7 concentration cut-off of 50 ng/ml” value ([3]; high transmission areas) was 80% and 95% and the “efficacy rates at 42 days for a day 7 concentration cut-off of 125 ng/ml” value ([3]; low transmission areas) was 84% and 96%.
With OC(c1cc(C(F)(F)F)nc2c(C(F)(F)F)cccc12)C1CCCCN1 (centres unmarked) [Mefloquine, mefloquine] the “CL (clearance), population estimate” value [4] was 0.10 × BW^0.75 L/h/kg, the “CL, bootstrap mean of 200” value [4] was 0.10 × BW^0.75 L/h/kg and the “F0 (residual amount from the previous treatment), population estimate” value [4] was 33.1 mg. The “F0, bootstrap mean of 200” value [4] was 31.0 mg, the “IIV (inter-individual variability) of CL” value [4] was 12% and the “IIV (inter-individual variability) of F0” value [4] was 175%. The “IIV (inter-individual variability) of VC” value [4] was 19%, the “VC (central volume of distribution), population estimate” value [4] was 8.93 × BW L/kg and the “VC, bootstrap mean of 200” value [4] was 9.01 × BW L/kg. For the same molecule, the Vd [4] was 625 L, the clearance [4] was 40 mL/min and the “inter-individual variability in concentration exposure” value [4] was roughly 12%. The “ka (first-order absorption rate constant), population estimate” value [4] was 0.15 h⁻¹, the “ka, bootstrap mean of 200” value [4] was 0.15 h⁻¹ and the “residual dose (F0) as percentage of an initial dose” value [4] was 6.7–26.7%. The “σC, bootstrap mean of 200” value [4] was 43%, the “σC, residual error for the central compartment, population estimate” value [4] was 43% and the “CL, population estimate” value [2, 13] was 3.71 L/h. The “VSS, population estimate” value [2, 13] was 1,089.2 L, the “CL, population estimate” value [2, 14] was 1.4 L/h and the “VSS, population estimate” value [2, 14] was 574.7 L. The “CL, population estimate” value [2, 15] was 2.1 L/h, the “VSS, population estimate” value [2, 15] was 767.62 L and the “CL, population estimate” value [2, 16] was 1.75 L/h. For the same molecule, the “VSS, population estimate” value [2, 16] was 863 L and the “minimal inhibitory concentration, MIC (drug plasma concentration)” value [5] was 0.5 mg/L (≈ 1.32 µM).
